# Measured values reported in patent US4379779A, “Equilin hapten and assay method” (American Home Products Corporation, priority 1980, dated 1983).
# Legend:
# [1] = test system: Equilin Antibody (anti-equilin serum); experiment: Cross-reactivity of steroids with anti-equilin serum (radioimmunoassay); type: binding, rabbit; conditions: for Equilin Antibody (Percent Cross-Reactivity): Table 1, anti-equilin serum, [2,4-3H]-equilin tracer
# Protocol: A standard was prepared from a stock solution of unlabeled equilin in absolute ethanol (100 ng/ml). A working standard solution containing 1 ng/ml of equilin was prepared in sodium phosphate buffer (0.1 M, pH 7, 0.9% NaCl). The labeled [2,4-^3 H]-equilin solution was prepared in the assay buffer at a concentration of 100 pg/ml. The antiserum was prepared in BSA-assay buffer (1 g BSA/1000 ml sodium phosphate buffer) at a concentration of one-fifth of the final working dilutions.
# The standard curve was established by preparing duplicate 3 ml centrifuge tubes containing 0, 50, 100, 250, 500, 1000, and 2000 pg of equilin in a total volume of 0.5 ml assay buffer. The sample tubes were prepared in duplicate with hydrolyzed plasma extract (0.1 ml) and assay buffer (0.4 ml) in a total volume of 0.5 ml. To all standard and sample tubes antibody (0.25 ml) and labeled steroid (0.5 ml) were added. These were mixed and allowed to incubate at 4° C. for 18 hr. After addition of 0.2 ml gamma globulin dextrancoated charcoal (4 g charcoal, 0.4 g dextran, 0.8 g human gamma globulin, 200 ml deionized water), each tube was again mixed and placed in a cold room (4° C.) for 20 min. After centrifugation at 2,500 rev./min for 6 min, 0.5 ml of each supernatant was aliquoted into a counting vial. Then 15 ml of a scintillation medium (4 g of 2,5-diphenyloxazole (PPO), 50 mg of 1,4-di-2-(5-phenyloxazoyl)-benzene(dimethyl-POPOP), 100 ml of an aqueous solubilizer Biosolv BBS-3 (Biosolv is a trademark of Bechman Istruments, Irvine, Calif., U.S.A.) and 1000 ml toluene) was added to each vial. The samples were counted to a relative standard error of less than 2% in a Packard model 3320 liquid scintillation counter, Packard Instrument Co., Downers Grove, Ill., U.S.A., see C. Matthijssen and J. W. Goldzieher, Analyt. Biochem., 10, 401 (1965).
# All rabbits immunized with the immunogen produced antisera with high titers and specificity in 6 months' time. The titer was determined from the ability of antibody to bind a constant amount (50 pg) of the labeled steroid. As a primary step, the cross-reactivity [G. E. Abraham, J. Clin. Endocrinol. Metabol., 29, 866 (1969)] of estrone with anti-equilin serum obtained from each rabbit was evaluated. […] These latter two compounds represent about 2% each of the typical composition of estrogens present in conjugated estrogens and will not interfere, as shown, in the validation of the assay.
# [2] = Oxidation of equilin to equilenin during formic acid hydrolysis of the conjugate fraction (HPLC); type: physicochemical; conditions: 120 min
# Protocol: Plasma (0.2 ml) and distilled water (0.7 ml) were added to a 16×125 nm tube and mixed. [6,7-^3 H]-Estrone-3-sulfate (0.1 ml, 2,000 cpm) and [2,4-^3 H]-equilin (0.1 ml, 2,000 cpm) were then added to correct for recovery through the assay procedure, and the sample again mixed well and allowed to stand at room temperature for 30 min. Diethyl ether (2 ml) was added for extraction of the free compound. The extraction was repeated three times and the combined extracts washed with distilled water (1 ml) and the solvent removed by evaporation. The aqueous phase containing the conjugates was re-extracted with 2 ml of ethyl acetate-ethanol (4:1, v/v). The extraction was repeated two more times and the combined extracts were dried in a centrifuge tube (12 ml) under a stream of nitrogen. The conjugate fraction was hydrolyzed with formic acid. A solution of ethyl acetate (1 ml) containing formic acid (20% ) and ascorbic acid (1 mg) was added to the tube containing the conjugate fraction. The tube was tightly closed, vortexed, and sonified for 10 min before being placed in a 37° C. water bath for 2 hr. The hydrolyzed sample was taken to dryness, sodium phosphate buffer (1 ml) was added. The solution was vortexed and allowed to stand at 20° C. for 10 min. The hydrolyzed free compound was extracted with diethyl ether (2 ml) three times and taken to dryness. […]
Structure (SMILES),Equilin Antibody (Percent Cross-Reactivity) [1] [%],further results
"C[C@]12CCC(=O)C=C1CC[C@@H]1[C@@H]2CC[C@]2(C)C(=O)CC[C@@H]12 [4-Androstene-3,17-dione]",< 0.10,–
C[C@]12CC[C@@H]3c4ccc(O)cc4C=C[C@H]3[C@@H]1CCC2=O [6-Dehydroestrone],< 0.10,–
C[C@]12CCC3=C(CCc4cc(O)ccc43)[C@@H]1CCC2=O [8-Dehydroestrone],0.94,–
C[C@]12CCc3c(ccc4cc(O)ccc34)[C@@H]1CC[C@H]2O [17α-Dihydroequilenin],< 0.10,–
C[C@]12CC[C@H]3C(=CCc4cc(O)ccc43)[C@@H]1CC[C@H]2O [17α-Dihydroequilin],< 0.10,–
C[C@]12CC[C@@H]3c4ccc(O)cc4CC[C@H]3[C@@H]1CC[C@H]2O [17α-Estradiol],< 0.10,–
C[C@]12CCc3c(ccc4cc(O)ccc34)[C@@H]1CC[C@@H]2O [17β-Dihydroequilenin],< 0.10,–
C[C@]12CC[C@H]3C(=CCc4cc(O)ccc43)[C@@H]1CC[C@@H]2O [17β-Dihydroequilin],2.86,cross-reaction with anti-equilin serum [1]: 2.9%
C[C@]12CC[C@@H]3c4ccc(O)cc4CC[C@H]3[C@@H]1CC[C@@H]2O [17β-Estradiol],< 0.10,–
C[C@]12CC[C@@H](O)C[C@@H]1CC[C@@H]1[C@@H]2CC[C@]2(C)C(=O)CC[C@@H]12 [Androsterone],< 0.10,–
C[C@]12CCC(=O)C=C1CC[C@@H]1[C@@H]2[C@@H](O)C[C@@]2(C)[C@H]1CC[C@]2(O)C(=O)CO [Cortisol],< 0.10,–
C[C@]12CC[C@H](O)CC1=CC[C@@H]1[C@@H]2CC[C@]2(C)C(=O)CC[C@@H]12 [Dehydroepiandrosterone],< 0.10,–
C[C@]12CCc3c(ccc4cc(O)ccc34)[C@@H]1CCC2=O [Equilenin],3.45,cross-reaction with anti-equilin serum [1]: 3.5%
C[C@]12CC[C@H]3C(=CCc4cc(OS(=O)(=O)O)ccc43)[C@@H]1CCC2=O [Equilin 3-Sulfate],1.36,–
"C[C@]12CC[C@H]3C(=CCc4cc(O)ccc43)[C@@H]1CCC2=O [Equilin, 3-hydroxy-1,3,5(10),7-estratetraen-17-one]",100.0,"equilin oxidized to equilenin during hydrolysis ([2]; formic acid hydrolysis with 0.1% (w/v) ascorbic acid added): 2-3%; equilin oxidized to equilenin during hydrolysis ([2]; hydrolysis of conjugate fraction with formic acid, no antioxidant): 13-16%"
"C[C@]12CC[C@@H]3c4ccc(O)cc4C[C@@H](O)[C@]3(O)[C@@H]1CCC2=O [Equilin-7α,8α-glycol]",< 0.10,–
C[C@]12CC[C@@H]3c4ccc(OS(=O)(=O)O)cc4CC[C@H]3[C@@H]1CCC2=O [Estrone 3-sulfate],< 0.10,–
C[C@]12CC[C@@H]3c4ccc(O)cc4CC[C@H]3[C@@H]1CCC2=O [Estrone],0.78,cross-reaction with anti-equilin serum [1]: negligible cross-reaction
CC(=O)[C@H]1CC[C@H]2[C@@H]3CCC4=CC(=O)CC[C@]4(C)[C@H]3CC[C@]12C [Progesterone],< 0.10,–
C[C@]12CC[C@H]3[C@@H](CCC4=CC(=O)CC[C@@]43C)[C@@H]1CC[C@@H]2O [Testosterone],< 0.10,–
